Assays:
[1] = target: T1, CYP1A2 (Homo sapiens, UniProt P05177); experiment: Inhibition of CYP1A2 (unknown origin) at 10 uM relative to control; type: ADME
T1 sequence (P05177 whole entry): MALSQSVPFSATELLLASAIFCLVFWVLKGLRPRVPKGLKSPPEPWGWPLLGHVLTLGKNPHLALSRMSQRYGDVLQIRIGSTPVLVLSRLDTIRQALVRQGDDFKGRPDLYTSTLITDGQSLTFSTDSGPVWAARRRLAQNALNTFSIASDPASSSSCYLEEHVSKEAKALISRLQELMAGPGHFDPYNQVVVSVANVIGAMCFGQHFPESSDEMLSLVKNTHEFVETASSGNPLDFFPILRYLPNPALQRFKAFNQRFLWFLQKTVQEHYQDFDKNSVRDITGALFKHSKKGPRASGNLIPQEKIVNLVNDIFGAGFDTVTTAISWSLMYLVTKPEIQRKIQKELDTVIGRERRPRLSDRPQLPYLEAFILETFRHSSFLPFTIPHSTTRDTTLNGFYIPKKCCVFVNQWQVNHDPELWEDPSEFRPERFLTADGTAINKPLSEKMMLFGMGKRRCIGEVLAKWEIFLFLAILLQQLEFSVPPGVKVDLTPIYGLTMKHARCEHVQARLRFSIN

[2] = Protein binding in mouse plasma assessed as bound fraction; type: ADME, cell-free
[3] = Clearance in Beagle dog at 1 mg/kg, iv relative to liver blood flow; type: ADME, organism-based, Canis lupus familiaris; settings: in vivo
[4] = target: Cytochrome P450 3A4 (Homo sapiens, UniProt P08684); experiment: Time dependent inhibition of CYP3A4 (unknown origin); type: ADME
Chain of Cytochrome P450 3A4 (P08684 whole entry): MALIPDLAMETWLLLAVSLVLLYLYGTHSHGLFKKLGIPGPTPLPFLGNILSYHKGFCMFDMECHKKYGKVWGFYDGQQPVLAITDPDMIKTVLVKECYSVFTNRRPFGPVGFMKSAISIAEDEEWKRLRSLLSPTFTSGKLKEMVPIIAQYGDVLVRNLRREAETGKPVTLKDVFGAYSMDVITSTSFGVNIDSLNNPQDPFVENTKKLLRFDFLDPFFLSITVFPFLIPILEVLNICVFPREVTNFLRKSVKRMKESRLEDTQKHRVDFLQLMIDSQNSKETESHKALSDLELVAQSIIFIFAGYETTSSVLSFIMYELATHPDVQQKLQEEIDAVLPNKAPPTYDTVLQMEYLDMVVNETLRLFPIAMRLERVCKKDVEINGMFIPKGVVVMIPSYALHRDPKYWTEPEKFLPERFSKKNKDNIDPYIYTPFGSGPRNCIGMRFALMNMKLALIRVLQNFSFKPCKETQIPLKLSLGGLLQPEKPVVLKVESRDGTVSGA

[5] = Volume of distribution at steady in Balb/c mouse at 1 mg/kg, iv formulated with 5:60:35 DMA/PEG400/20% SBECD; type: ADME, organism-based; settings: in vivo, read-out: Vdss
[6] = Intrinsic clearance in dog liver microsomes assessed per mg protein; type: ADME, Canis lupus familiaris, Microsome
[7] = target: T2, Cytochrome P450 2C8 (Homo sapiens, UniProt P10632); experiment: Time dependent inhibition of CYP2C8 (unknown origin); type: ADME
T2 sequence (P10632 whole entry): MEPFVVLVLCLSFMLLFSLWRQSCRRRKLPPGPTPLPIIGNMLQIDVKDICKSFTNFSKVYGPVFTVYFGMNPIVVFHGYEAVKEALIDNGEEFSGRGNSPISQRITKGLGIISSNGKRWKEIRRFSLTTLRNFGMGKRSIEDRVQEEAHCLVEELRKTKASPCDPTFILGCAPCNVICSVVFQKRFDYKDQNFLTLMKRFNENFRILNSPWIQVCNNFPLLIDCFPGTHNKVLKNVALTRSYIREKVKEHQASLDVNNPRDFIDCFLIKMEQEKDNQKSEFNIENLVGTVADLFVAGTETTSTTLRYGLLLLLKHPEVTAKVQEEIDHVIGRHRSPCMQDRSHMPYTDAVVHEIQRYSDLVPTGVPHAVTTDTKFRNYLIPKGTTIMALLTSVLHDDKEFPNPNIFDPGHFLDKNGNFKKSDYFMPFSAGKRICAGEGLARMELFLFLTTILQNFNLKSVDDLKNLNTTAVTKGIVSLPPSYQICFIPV

[8] = Unbound AUC in Beagle dog at 5 mg/kg, po; type: ADME, organism-based, Canis lupus familiaris; settings: in vivo
[9] = Clearance in Sprague-Dawley rat at 1 mg/kg, iv relative to liver blood flow; type: ADME, organism-based; settings: in vivo
[10] = target: T3, Cytochrome P450 1A2 (Homo sapiens, UniProt P05177); experiment: Time dependent inhibition of CYP1A2 (unknown origin); type: ADME
T3 sequence (P05177 whole entry): T1 sequence (P05177 whole entry)

[11] = Drug concentration in tumor of CB17 SCID mouse xenografted with human KARPAS-422 cells at 160 mg/kg, po BID administered for 17 days and measured up to 12 hrs post last dose by LC-MS analysis; type: ADME, organism-based, Neoplasm; settings: time 17 day, read-out: Ct
[12] = Oral bioavailability in Beagle dog at 5 mg/kg; type: ADME, organism-based, Canis lupus familiaris; settings: in vivo
[13] = Drug concentration in plasma of CB17 SCID mouse xenografted with human KARPAS-422 cells at 160 mg/kg, po BID administered for 17 days and measured up to 12 hrs post last dose by LC-MS analysis; type: ADME, organism-based; settings: time 17 day
[14] = Protein binding in human plasma assessed as bound fraction; type: ADME, cell-free; settings: read-out: PPB (converted)
[15] = Unbound clearance in Beagle dog at 1 mg/kg, iv; type: ADME, organism-based, Canis lupus familiaris; settings: in vivo
[16] = target: CYP3A4 (Homo sapiens, UniProt P08684); experiment: Inhibition of CYP3A4 (unknown origin) at 10 uM relative to control; type: ADME
Chain of CYP3A4 (P08684 whole entry): as the sequence (P08684 whole entry) above

[17] = Clearance in Sprague-Dawley rat at 1 mg/kg, iv; type: ADME, organism-based; settings: in vivo
[18] = target: T4, CYP2C8 (Homo sapiens, UniProt P10632); experiment: Inhibition of CYP2C8 (unknown origin) at 10 uM relative to control; type: ADME
T4 sequence (P10632 whole entry): T2 sequence (P10632 whole entry)

[19] = Intrinsic clearance in rat liver microsomes assessed per mg protein; type: ADME, Microsome
[20] = Unbound Cmax in Balb/c mouse at 100 mg/kg, po formulated in 0.5 % methyl cellulose maintained at pH 3 to 4; type: ADME, organism-based; settings: in vivo, pH 3, 100 mg/kg

Structure (SMILES): COc1cc(C)[nH]c(=O)c1CNC(=O)c1c(C)n([C@H](C)C2CCN(CC(F)(F)F)CC2)c2ccccc12 [CPI-1205]
- inhibition at 10 µM [1]: 15%
- PPB [2]: 97.9%
- CL [3]: 76%
- TDI [4]: Not Active
- Vd [5]: 1.36 L/kg
- CLH [6]: 73.9 µL/min
- TDI [7]: Not Active
- fAUC [8]: 0.309 µM·h
- CL [9]: 97%
- TDI [10]: Not Active
- concentration at 408 h [11]: 5290 ng/g
- F [12]: 46.2%
- concentration at 408 h [13]: 11400 ng/mL
- fraction unbound [14]: 0.072
- CL free [15]: 242 mL/min/kg
- inhibition at 10 µM [16]: 0%
- clearance [17]: 53.2 mL/min/kg
- inhibition at 10 µM [18]: 41%
- CLH [19]: 99.6 µL/min
- fCmax [20]: 1.41 µM
